Assay results from patent US20250041327A1, “COMPOSITIONS FOR PREVENTING OR FOR REDUCING RISK OF […] INFECTIOUS DISEASES” (priority 2021, published 2025).

Key:
ICAM-1 = format: cell-based, human; settings: infected A549 cells, 1×10^5 pfu virus; BXA 250 nM
claudin-1 = format: cell-based, human; settings: A549 cells, EPS pre-treatment study; BXA 250 nM; viral-infection vs non-viral infection group
E-cadherin = format: cell-based, human; settings: A549 cells, EPS pre-treatment study; BXA 250 nM; viral-infection vs non-viral infection group
occludin = format: cell-based, human; settings: A549 cells, EPS pre-treatment study; BXA 250 nM; viral-infection vs non-viral infection group
ZO-1 = format: cell-based, human; settings: A549 cells, EPS pre-treatment study; BXA 250 nM; viral-infection vs non-viral infection group
VCAM-1 = format: cell-based, human; settings: infected A549 cells, 1×10^5 pfu virus; BXA 250 nM
PAF-r = format: cell-based, human; settings: infected A549 cells, 1×10^5 pfu virus; BXA 250 nM
CEACAM-1 = CEACAM-1 mRNA expression in virus-infected A549 cells (quantitative RT-PCR); settings: 1×10^5 pfu virus, 1 hour with EPS then 6 hours, BXA 250 nM, compared with virus-infected cells
[1] = system: S. aureus strain ATCC 29213; format: cell-based; settings: 1×10^5 pfu virus, 1×10^5 cfu S. aureus for 1 hour; 400 μg EPS or 250 nM BXA per well; compared with virus-infected cells without treatment
E-selectin = format: cell-based, human; settings: infected A549 cells, 1×10^5 pfu virus; BXA 250 nM
fibronectin = format: cell-based, human; settings: infected A549 cells, 1×10^5 pfu virus; BXA 250 nM

With `O=C1c2c(O)c(=O)ccn2N([C@@H]2c3ccccc3SCc3c2ccc(F)c3F)[C@@H]2COCCN12` [BXA, baloxavir acid] the “ICAM-1 mRNA expression” value (ICAM-1) was “not changed”, the “claudin-1 mRNA expression” value (claudin-1) was “no difference” and the “E-cadherin mRNA expression” value (E-cadherin) was “no difference”. The “occludin mRNA expression” value (occludin) was “no difference”, the “ZO-1 mRNA expression” value (ZO-1) was “no difference” and the “VCAM-1 mRNA expression” value (VCAM-1) was “not changed”. The “PAF-r mRNA expression” value (PAF-r) was “not changed”, the “CEACAM-1 mRNA expression increased by influenza virus infection” value (CEACAM-1) was “significantly reduced” and the “numbers of adhered bacteria on virus-infected A549 cells” value [1] was “did not decrease”. For the same compound, the “E-selectin mRNA expression” value (E-selectin) was “not changed” and the “fibronectin mRNA expression” value (fibronectin) was “not changed”.
